Measured values: patent EP0015817A1, “Piperidine derivatives, process for their preparation and their use in therapeutical compositions” (METABIO-JOULLIE Société anonyme:, priority 1979, dated 1980)
Read-outs that look alike come from different tables or passages of the source.

Columns and labels:
[1] = Acute toxicity (LD50) in mice; conditions: mouse, in vivo, souris Swiss NMRI, read-out: DL50 (the source's name)
Protocol: La DL50 a été déterminée chez la souris Swiss NMRI sur le bromhydrate de la benzyloxy-4 pipéridine : - voie orale DL50 75 mg/kg - voie I.V. DL50 32,5 mg/kg

duodénum isolé de rat = experiment: Antispasmodic action: antagonism of barium chloride-induced contraction on isolated rat duodenum (Magnus method); conditions: for IC50: read-out: Concentrations molaires inhibitrices 50 %
Protocol: Les essais sont effectués sur le duodénum isolé de rat en survie dans du liquide de Tyrode oxygéné et à température de 37°C (cuve de 20 ml, bain- marie à organes isolés type Valette).
Le tonus et les mouvements de l'organe isolé sont enregistrés par la méthode de Magnus (R.) (Arch. Ges. Physiol. 1904, 102; 123) à l'aide d'une jauge de contrainte reliée à un enregistreur électronique Electromed.
L'antagonisme exercé par le produit étudié est recherché vis-à-vis des effets contracturants musculotropes du chlorure de baryum.
La papavérine est utilisée comme substance antagoniste de référence.
On détermine la concentration molaire du produit qui diminue de 50 % les effets du chlorure de baryum.

SMILES: c1ccc(COC2CCNCC2)cc1 [Benzyloxy-4 pipéridine (bromhydrate), Bromhydrate de benzyloxy-4 pipéridine]
- LD50 ([1]; iv, voie I.V.): 32.5 mg/kg
- LD50 ([1]; po, voie orale): 75 mg/kg
- IC50 (duodénum isolé de rat; concentration reducing by 50 % the effects of chlorure de baryum, isolated rat duodenum in oxygenated Tyrode, 37°C): 18 µM
- activité antispasmodique comparée à celle de la papavérine (duodénum isolé de rat; qualitative comparison with papavérine, chlorure de baryum contraction, isolated rat duodenum): sensiblement égale à celle de la papavérine

SMILES: COc1ccc(Cc2nccc3cc(OC)c(OC)cc23)cc1OC [Papavérine, reference compound]
- IC50 (duodénum isolé de rat; Rattus norvegicus): 12.5 µM
